Assays:
[1] = tested on: B cells and IgG-secreting plasma cells in the BM; conditions: i.p. twice a day 5 μg for 4 days
Method: C57BL/6 mice were injected i.p. twice a day with 5 μg of AMD3100 for 4 days. B220+cells and IgG-secreting plasma cells were analyzed on day 4 by flow cytometry (H) and by ELISpot assay (I), respectively. n=5-6. The data are representative of at least two independent experiments. *p<0.05, **p<0.01, ***p<0.001.
To count Ig-secreting cells, MultiScreen filter plates with PVDF membrane (Merck) were activated for 1 min with 35% ethanol followed by washing and were coated with 7.2 μg/ml of goat anti-mouse Ig, F(ab′)2 fragment (Jackson ImmunoResearch) overnight at 4° C. After washing and blocking with RPMI1640/10% FCS, diluted fresh cells were added and incubated for 5 h at 37° C. Following incubation, alkaline phosphatase-conjugated anti-IgG, IgG1, IgM or IgA (Southern Biotech) was added for 1 h at 37° C. and spots were visualized with BCIP/NBT Plus substrate (Mabtech) and were counted by ELISpot reader (AID).

[2] = tested on: anti-DNA IgG-secreting plasma cells in the BM; test: Murine model of systemic lupus erythematosus, anti-DNA IgG ELISpot in BM; type: in vivo; conditions: NZB/VV Fl female mice 5-6 months old, i.p. 100 μg on days 0, 3, 7 and 10, ELISpot on day 11
Method: FIG. 15. SiiE129 peptide reduce numbers of DNA-specific IgG-secreting plasma cells in the bone marrow. […] NZB/VV Fl female mice (5-6 months old) received i.p. 100 μg peptide coding SiiE amino acid 129-168 on days 0, 3, 7 and 10 and on day 11 were analyzed for anti-DNA IgG-secreting cells in the BM by ELISpot assay. n=5-6. The data are representative of two independent experiments.
NZB/VV Fl female mice (5-6 months old) received i.p. 100 μg peptide coding SiiE amino acid 129-168 on days 0, 3, 7 and 10 and on day 11 were analyzed for anti-DNA IgG-secreting cells in the BM by ELISpot assay.

[3] = tested on: BM IgG-secreting plasma cells; test: ELISpot count of Ig-secreting cells the day after i.p. SiiE peptide; type: in vivo; conditions: C57BL/6 mice, i.p. 100 μg peptide, analyzed on the next day
Method: FIG. 5. Identification of the microbial component reducing numbers of BM IgG-secreting plasma cells. (A) Salmonella colonizes in the spleen and liver but not in the BM. The CFU of Salmonella in the spleen, liver and BM of Salmonella-infected mice on day 4 after infection was counted. The dotted line represents the limit of detection. n=3-6. […] C57BL/6 mice received 200 μl of LB medium, untreated or LPS-depleted culture supernatants from flagellin-deficient attenuated Salmonella or Escherichia coli (ΔLonΔFIhD) and on the next day (24 h later) were analyzed for IgG-secreting cells by ELISpot assay. n=8. […] Mice were infected i.p. with 200 μl of LB and LPS-depleted supernatant from flagellin-deficient attenuated Salmonella on day 41 and analyzed for IgG-secreting cells on the next day. n=6. […] C57BL/6 mice received i.p. 200 μl of LB medium and LPS-depleted supernatants from attenuated Salmonella ΔLon or ΔLonΔSiiE and on the next day were analyzed for IgG-secreting cells by ELISpot assay. n=5. […] C57BL/6 mice received i.p. 100 μg peptide coding SiiE amino acid 129-168 and on the next day were analyzed for IgG- and IgM-secreting cells in the BM and spleen. n=5. […] BM or splenic cells from C57BL/6 mice were incubated with 30 μg/ml of GST-SiiE 97-170 or GST protein, stained with anti-GST antibodies, and analyzed by flow cytometry. n=3. […] Adherent cells were counted after washing.

Row | Compound | B cell numbers in the BM ([1]; B220+ cells by flow cytometry on day 4) | numbers of IgG-secreting plasma cells in the BM ([1]; ELISpot on day 4) | number of anti-DNA IgG-secreting cells in bone marrow [2] | number of anti-DNA IgG-secreting cells in bone marrow ([2]; listed as SiiE129 peptide) | numbers of BM IgG-secreting plasma cells [3] | numbers of BM IgG-secreting plasma cells ([3]; listed as peptide coding SiiE amino acid 129-168)
1 | c1cc(CN2CCCNCCNCCCNCC2)ccc1CN1CCCNCCNCCCNCC1 [AMD3100] | numerically reduces B cells | but not IgG-secreting plasma cells in the BM | – | – | – | –
2 | KEADKAKEEAEKAKEAAEKALNEAFEVQNSSKQIEEMLQN (listed as Salmonella enterica) [SiiE 129-168] | – | – | reduces the number of Anti-DNA IgG-secreting cells in bone marrow | reduces numbers of anti-DNA IgG-secreting plasma cells in the BM | markedly reduced numbers of BM IgG-secreting plasma cells | reduces numbers of BM IgG-secreting plasma cells
